# According to US20060178354A1, “Methods and compositions for the treatment of chronic pain using dhea and derivatives thereof” (priority 2003, published 2006):
# Test system: chronic pain
# Assay: Subjective pain reduction in a person with chronic pain (case report, scale of 0-100% reduction)
# Format: in vivo, human
# Method: The tasks included many different routine physical tasks, but particularly included typing and use of a computer mouse. […] DHEA (50 mg/day) was also taken alone orally for three weeks. […] The degree was subjective based on a scale of 0-100% reduction, where 0% was no pain reduction and 100% was total pain elimination.
# In addition to treatment with DHEA alone, the person of Example 1, was also treated with Nortriptyline alone and with a combination of 75 mg per day DHEA and 10 mg per day Nortriptyline.
structure (smiles),measurement,setting,value
"C[C@]12CC[C@H](O)CC1=CC[C@@H]1[C@@H]2CC[C@]2(C)C(=O)CC[C@@H]12 [DHEA, dehydroepiandrosterone]",reduction in pain,"50 mg/day alone orally for three weeks, by the end of the second week, subjective scale 0-100%",approximately 25%
same,"pain remaining, of the original pain","doses of 75 mg and I 00 mg for three weeks each, after 50 mg/day",less than 50%
CNCCC=C1c2ccccc2CCc2ccccc21 [Nortriptyline],reduction in pain,"alone, 10 mg per day",about 20%
same,reduction in pain compared with 10 mg per day,"alone, 25 and 50 mg doses",to greater extent
Cc1ccc(-c2cc(C(F)(F)F)nn2-c2ccc(S(N)(=O)=O)cc2)cc1 [celecoxib],reduction in pain,"400 mg/day alone, subjective scale, 0% no pain reduction, 100% total pain elimination",approximately 25%
"NCC1(CC(=O)O)CCCCC1 [gabapeatin, gabapentin]",pain relief,"treatment with the drug alone, person with 5 year history of chronic pain",did not result in pain relief
